Data set [1] addresses T1, Human Neuropeptide Y2 Receptor (Homo sapiens, UniProt P49146).
T1 construct: purchased CHEMICON HTS066M
T1 sequence (P49146 1-381): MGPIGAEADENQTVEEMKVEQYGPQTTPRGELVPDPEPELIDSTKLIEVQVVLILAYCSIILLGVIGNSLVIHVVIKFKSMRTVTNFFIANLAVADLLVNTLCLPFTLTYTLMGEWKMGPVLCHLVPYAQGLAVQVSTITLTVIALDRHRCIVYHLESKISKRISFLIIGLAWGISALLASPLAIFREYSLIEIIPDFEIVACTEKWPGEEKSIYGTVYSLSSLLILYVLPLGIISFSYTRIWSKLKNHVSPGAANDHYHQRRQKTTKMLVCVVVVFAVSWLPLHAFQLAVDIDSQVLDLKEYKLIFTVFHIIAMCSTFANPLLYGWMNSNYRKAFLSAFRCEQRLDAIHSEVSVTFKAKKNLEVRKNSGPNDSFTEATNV
The experiment in a line: Radioligand binding competition assay (RLB). The conditions noted are these: Table 3, 125I-PYY(1-36) competition; read-out: Ki. Put shortly:
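Receptor membranes, 0.5 μg/well; buffer 50 mM HEPES/5 mM MgCl2/1 mM CaCl2/0.2% ovalbumin, pH 7.4; 2 h RT, shaking. GF/C filtration, cold HEPES/500 mM NaCl wash, scintillation count. IC50 by nonlinear regression.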

Another data set in a line: Solubility determination. The conditions noted are these: for Sol6: pH 6; for Sol7: pH 7. Put shortly: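 Sample: TFA-salt peptide at 10 mg/ml target in 0.1 M Na diphosphate, pH 6.4 or 7.0, shaken 2 h RT, filtered, diluted to 1 mg/ml.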

Molecules are shown by their SMILES. Some results are limits rather than exact numbers.

The values that follow come from patent US12391737B2, “Soluble NPY2 receptor agonists” (Boehringer Ingelheim International GmbH, priority 2020, dated 2025).

What is called Ki is the equilibrium dissociation constant of an inhibitor or competing ligand from its target.

With `CC(C)CC(=O)N[C@@H](C)C(=O)N1CCC[C@H]1C(=O)N[C@@H](CCC(=O)O)C(=O)N[C@@H](CCCCNC(=O)CCCCCNC(=O)CC[C@H](NC(=O)CCCCCCCCCCCCCCCCC(=O)O)C(=O)O)C(=O)N1CCC[C@H]1C(=O)N[C@@H](CCC(=O)O)C(=O)N[C@@H](CCC(=O)O)C(=O)N[C@@H](CC(=O)O)C(=O)N[C@@H](C)C(=O)N[C@@H](CO)C(=O)N[C@@H](CCC(=O)O)C(=O)N[C@@H](C)C(=O)N[C@@H](CCC(=O)O)C(=O)N[C@@H](CC(C)C)C(=O)N[C@@H](CCC(N)=O)C(=O)N[C@@H](CCCNC(=N)N)C(=O)N[C@@H](Cc1ccc(O)cc1)C(=O)N[C@@H](Cc1ccc(O)cc1)C(=O)N[C@H](C(=O)N[C@@H](CO)C(=O)N[C@@H](CC(C)C)C(=O)N[C@@H](CCCNC(=N)N)C(=O)N[C@@H](Cc1c[nH]cn1)C(=O)N[C@@H](Cc1ccc(O)cc1)C(=O)N[C@@H](Cc1ccc(O)cc1)C(=O)N[C@@H](CC(N)=O)C(=O)N[C@@H](Cc1c[nH]c2ccccc12)C(=O)N[C@@H](CC(C)C)C(=O)N[C@H](C(=O)N[C@@H](CCCNC(=N)N)C(=O)N[C@@H](CCC(N)=O)C(=O)N[C@@H](CCCNC(=N)N)C(=O)N[C@@H](Cc1ccc(O)cc1)C(N)=O)[C@@H](C)O)C(C)C` [Compound 80, N{alpha-4}-(3-methylbutanoyl)-N{epsilon-7}-(6-[(4S)-4-carboxy-4-(17-carboxyheptadecanamido)butanamido]hexanoyl)-[4A,7K,9E,14E,15A,18Q,22V,28Y,30W,31L]-hPYY(4-36)], the Ki in data set [1] is 4.62 nM. Moreover, in “Solubility determination”, the “Sol6” value was found to be 8.1 mg/mL and the “Sol7” value turned out to be 8.2 mg/mL.
For `CC[C@H](C)[C@H](NC(=O)[C@H](CCC(=O)O)NC(=O)[C@H](CCC(=O)O)NC(=O)[C@@H]1CCCN1C(=O)[C@H](CO)NC(=O)[C@H](C)NC(=O)[C@H](CC(=O)O)NC(=O)[C@H](C)NC(=O)[C@@H]1CCCN1C(=O)[C@@H]1CCCN1C(=O)[C@H](CCCCNC(=O)CCCCCNC(=O)CC[C@H](NC(=O)CCCCCCCCCCCCCCCCC(=O)O)C(=O)O)NC(=O)[C@H](CCC(=O)O)NC(=O)[C@@H]1CCCN1C(=O)[C@H](C)NC(=O)CC(C)C)C(=O)N[C@@H](CCC(N)=O)C(=O)N[C@@H](CCCNC(=N)N)C(=O)N[C@@H](Cc1ccc(O)cc1)C(=O)N[C@@H](Cc1ccc(O)cc1)C(=O)N[C@H](C(=O)N[C@@H](CO)C(=O)N[C@@H](CC(C)C)C(=O)N[C@@H](CCCNC(=N)N)C(=O)N[C@@H](Cc1c[nH]cn1)C(=O)N[C@@H](Cc1ccc(O)cc1)C(=O)N[C@@H](Cc1ccc(O)cc1)C(=O)N[C@@H](CC(N)=O)C(=O)N[C@@H](Cc1c[nH]c2ccccc12)C(=O)N[C@@H](CC(C)C)C(=O)N[C@H](C(=O)N[C@@H](CCCNC(=N)N)C(=O)N[C@@H](CCC(N)=O)C(=O)N[C@@H](CCCNC(=N)N)C(=O)N[C@@H](Cc1ccc(O)cc1)C(N)=O)[C@@H](C)O)C(C)C` [Compound 61, N{alpha-4}-(3-methylbutanoyl)-N{epsilon-7}-(6-[(4S)-4-carboxy-4-(17-carboxyheptadecanamido)butanamido]hexanoyl)-[4A,7K,9P,10A,17I,18Q,22V,28Y,30W,31L]-hPYY(4-36)], in that order: 0.41 nM, 0.1 mg/mL and 8.9 mg/mL.
For `CC[C@H](C)[C@H](NC(=O)[C@H](CCC(=O)O)NC(=O)[C@H](CCC(=O)O)NC(=O)[C@@H]1CCCN1C(=O)[C@@H](NC(=O)[C@H](C)NC(=O)[C@H](CC(=O)O)NC(=O)[C@H](CCC(=O)O)NC(=O)[C@H](CCC(=O)O)NC(=O)[C@@H]1CCCN1C(=O)[C@H](CCCCNC(=O)CCCCCNC(=O)CC[C@H](NC(=O)CCCCCCCCCCCCCCCCC(=O)O)C(=O)O)NC(=O)[C@H](CCC(=O)O)NC(=O)[C@@H]1CCCN1C(=O)[C@H](C)NC(=O)CC(C)C)[C@@H](C)O)C(=O)N[C@@H](CCC(N)=O)C(=O)N[C@@H](CCCNC(=N)N)C(=O)N[C@@H](Cc1ccc(O)cc1)C(=O)N[C@@H](Cc1ccc(O)cc1)C(=O)N[C@H](C(=O)N[C@@H](CO)C(=O)N[C@@H](CC(C)C)C(=O)N[C@@H](CCCNC(=N)N)C(=O)N[C@@H](Cc1c[nH]cn1)C(=O)N[C@@H](Cc1ccc(O)cc1)C(=O)N[C@@H](CCC(N)=O)C(=O)N[C@@H](CC(N)=O)C(=O)N[C@@H](Cc1c[nH]c2ccccc12)C(=O)N[C@@H](CC(C)C)C(=O)N[C@H](C(=O)N[C@@H](CCCNC(=N)N)C(=O)N[C@@H](CCC(N)=O)C(=O)N[C@@H](CCCNC(=N)N)C(=O)N[C@@H](Cc1ccc(O)cc1)C(N)=O)[C@@H](C)O)C(C)C` [Compound 113, N{alpha-4}-(3-methylbutanoyl)-N{epsilon-7}-(6-[(4S)-4-carboxy-4-(17-carboxyheptadecanamido)butanamido]hexanoyl)-[4A,7K,9E,13T,17I,18Q,22V,28Q,30W,31L]-hPYY(4-36)], in that order: 3.53 nM, more than 10.0 mg/mL and 10.0 mg/mL.
With `CC(C)CC(=O)N[C@@H](C)C(=O)N1CCC[C@H]1C(=O)N[C@@H](CCC(=O)O)C(=O)N[C@@H](CCCCNC(=O)CCCCCNC(=O)CC[C@H](NC(=O)CCCCCCCCCCCCCCCCC(=O)O)C(=O)O)C(=O)N1CCC[C@H]1C(=O)N[C@@H](CCC(=O)O)C(=O)N[C@@H](C)C(=O)N[C@@H](CC(=O)O)C(=O)N[C@@H](C)C(=O)N[C@@H](CO)C(=O)N[C@@H](CCC(=O)O)C(=O)N[C@@H](CCC(=O)O)C(=O)N[C@@H](CCC(=O)O)C(=O)N[C@@H](CC(C)C)C(=O)N[C@@H](CCC(N)=O)C(=O)N[C@@H](CCCNC(=N)N)C(=O)N[C@@H](Cc1ccc(O)cc1)C(=O)N[C@@H](Cc1ccc(O)cc1)C(=O)N[C@H](C(=O)N[C@@H](CO)C(=O)N[C@@H](CC(C)C)C(=O)N[C@@H](CCCNC(=N)N)C(=O)N[C@@H](Cc1c[nH]cn1)C(=O)N[C@@H](Cc1ccc(O)cc1)C(=O)N[C@@H](Cc1ccc(O)cc1)C(=O)N[C@@H](CC(N)=O)C(=O)N[C@@H](Cc1c[nH]c2ccccc12)C(=O)N[C@@H](CC(C)C)C(=O)N[C@H](C(=O)N[C@@H](CCCNC(=N)N)C(=O)N[C@@H](CCC(N)=O)C(=O)N[C@@H](CCCNC(=N)N)C(=O)N[C@@H](Cc1ccc(O)cc1)C(N)=O)[C@@H](C)O)C(C)C` [Compound 108, N{alpha-4}-(3-methylbutanoyl)-N{epsilon-7}-(6-[(4S)-4-carboxy-4-(17-carboxyheptadecanamido)butanamido]hexanoyl)-[4A,7K,9E,10A,14E,18Q,22V,28Y,30W,31L]-hPYY(4-36)], in data set [1], the Ki amounted to 2.77 nM. Moreover, in the data set “Solubility determination”, the “Sol6” value was 8.6 mg/mL and the “Sol7” value is 8.0 mg/mL.
